In ChEMBL document CHEMBL4251595, “Green approach for the synthesis of thiophenyl pyrazoles and isoxazoles by adopting 1,3-dipolar cycloaddition methodology and their antimicrobial activity” (2018):
The source made the active and inactive calls. No cut-off for these calls is given here.

Legend:
Type in all cases: functional
Penicillium chrysogenum [1] = assay: Antifungal activity against Penicillium chrysogenum assessed as zone of inhibition at 75 ug/well after 48 hrs by agar well diffusion method; settings: for zone of inhibition at 75 µg/disc: read-out: DIZ
Pseudomonas aeruginosa [2] = assay: Antimicrobial activity against Pseudomonas aeruginosa assessed as zone of inhibition at 50 ug/well after 24 hrs by agar well diffusion method; settings: for zone of inhibition at 50 µg/disc: read-out: DIZ
Pseudomonas aeruginosa [3] = assay: Antimicrobial activity against Pseudomonas aeruginosa assessed as zone of inhibition at 100 ug/well after 24 hrs by agar well diffusion method; settings: for zone of inhibition at 100 µg/disc: read-out: DIZ
Aspergillus niger [4] = assay: Antifungal activity against Aspergillus niger assessed as zone of inhibition at 50 ug/well after 48 hrs by agar well diffusion method; settings: for zone of inhibition at 50 µg/disc: read-out: DIZ
Bacillus subtilis [5] = assay: Antimicrobial activity against Bacillus subtilis assessed as zone of inhibition at 75 ug/well after 24 hrs by agar well diffusion method; settings: for zone of inhibition at 75 µg/disc: read-out: DIZ
Penicillium chrysogenum [6] = assay: Antifungal activity against Penicillium chrysogenum assessed as zone of inhibition at 100 ug/well after 48 hrs by agar well diffusion method; settings: for zone of inhibition at 100 µg/disc: read-out: DIZ
Klebsiella pneumoniae [7] = assay: Antimicrobial activity against Klebsiella pneumoniae assessed as zone of inhibition at 50 ug/well after 24 hrs by agar well diffusion method; settings: for zone of inhibition at 50 µg/disc: read-out: DIZ
Penicillium chrysogenum [8] = assay: Antifungal activity against Penicillium chrysogenum assessed as zone of inhibition at 50 ug/well after 48 hrs by agar well diffusion method; settings: for zone of inhibition at 50 µg/disc: read-out: DIZ
Staphylococcus aureus [9] = assay: Antimicrobial activity against Staphylococcus aureus assessed as zone of inhibition at 100 ug/well after 24 hrs by agar well diffusion method; settings: for zone of inhibition at 100 µg/disc: read-out: DIZ
Staphylococcus aureus [10] = assay: Antimicrobial activity against Staphylococcus aureus assessed as zone of inhibition at 75 ug/well after 24 hrs by agar well diffusion method; settings: for zone of inhibition at 75 µg/disc: read-out: DIZ
Aspergillus niger [11] = assay: Antifungal activity against Aspergillus niger assessed as zone of inhibition at 75 ug/well after 48 hrs by agar well diffusion method; settings: for zone of inhibition at 75 µg/disc: read-out: DIZ
Klebsiella pneumoniae [12] = assay: Antimicrobial activity against Klebsiella pneumoniae assessed as zone of inhibition at 100 ug/well after 24 hrs by agar well diffusion method; settings: for zone of inhibition at 100 µg/disc: read-out: DIZ
Bacillus subtilis [13] = assay: Antimicrobial activity against Bacillus subtilis assessed as zone of inhibition at 100 ug/well after 24 hrs by agar well diffusion method; settings: for zone of inhibition at 100 µg/disc: read-out: DIZ
Bacillus subtilis [14] = assay: Antimicrobial activity against Bacillus subtilis assessed as zone of inhibition at 50 ug/well after 24 hrs by agar well diffusion method; settings: for zone of inhibition at 50 µg/disc: read-out: DIZ
Aspergillus niger [15] = assay: Antifungal activity against Aspergillus niger assessed as zone of inhibition at 100 ug/well after 48 hrs by agar well diffusion method; settings: for zone of inhibition at 100 µg/disc: read-out: DIZ
Pseudomonas aeruginosa [16] = assay: Antimicrobial activity against Pseudomonas aeruginosa assessed as zone of inhibition at 75 ug/well after 24 hrs by agar well diffusion method; settings: for zone of inhibition at 75 µg/disc: read-out: DIZ
Staphylococcus aureus [17] = assay: Antimicrobial activity against Staphylococcus aureus assessed as zone of inhibition at 50 ug/well after 24 hrs by agar well diffusion method; settings: for zone of inhibition at 50 µg/disc: read-out: DIZ
Klebsiella pneumoniae [18] = assay: Antimicrobial activity against Klebsiella pneumoniae assessed as zone of inhibition at 75 ug/well after 24 hrs by agar well diffusion method; settings: for zone of inhibition at 75 µg/disc: read-out: DIZ

Compound	zone of inhibition at 75 µg/disc (Penicillium chrysogenum [1])	zone of inhibition at 50 µg/disc (Aspergillus niger [4])	zone of inhibition at 75 µg/disc (Bacillus subtilis [5])	zone of inhibition at 100 µg/disc (Penicillium chrysogenum [6])	zone of inhibition at 50 µg/disc (Klebsiella pneumoniae [7])	zone of inhibition at 100 µg/disc (Staphylococcus aureus [9])	zone of inhibition at 75 µg/disc (Staphylococcus aureus [10])	zone of inhibition at 75 µg/disc (Aspergillus niger [11])	zone of inhibition at 100 µg/disc (Klebsiella pneumoniae [12])	zone of inhibition at 100 µg/disc (Bacillus subtilis [13])	zone of inhibition at 50 µg/disc (Bacillus subtilis [14])	zone of inhibition at 100 µg/disc (Aspergillus niger [15])	zone of inhibition at 75 µg/disc (Klebsiella pneumoniae [18])	diameter of the inhibition zone (DIZ) (Pseudomonas aeruginosa [2])	diameter of the inhibition zone (DIZ) (Pseudomonas aeruginosa [3])	diameter of the inhibition zone (DIZ) (Aspergillus niger [4])	diameter of the inhibition zone (DIZ) (Penicillium chrysogenum [8])	diameter of the inhibition zone (DIZ) (Staphylococcus aureus [10])	diameter of the inhibition zone (DIZ) (Pseudomonas aeruginosa [16])	diameter of the inhibition zone (DIZ) (Staphylococcus aureus [17])	other results
O=C(NS(=O)(=O)c1c(-c2ccccc2)nn(-c2ccccc2)c1-c1ccccc1)c1cccs1	14 mm	15 mm	23 mm	16 mm	18 mm	20 mm	18 mm	16 mm	23 mm	26 mm	22 mm	20 mm	20 mm	–	–	–	–	–	–	–	zone of inhibition at 50 µg/disc (Pseudomonas aeruginosa [2]): 9 mm; zone of inhibition at 100 µg/disc (Pseudomonas aeruginosa [3]): 12 mm; zone of inhibition at 50 µg/disc (Penicillium chrysogenum [8]): 12 mm; zone of inhibition at 75 µg/disc (Pseudomonas aeruginosa [16]): 10 mm; zone of inhibition at 50 µg/disc (Staphylococcus aureus [17]): 15 mm
O=C(NS(=O)(=O)C1C(c2ccccc2)=NOC1c1ccccc1)c1ccc(Cl)s1 (stereo not drawn)	–	–	12 mm	7 mm	8 mm	8 mm	–	9 mm	12 mm	16 mm	10 mm	12 mm	10 mm	inactive	inactive	inactive	inactive	inactive	inactive	inactive	diameter of the inhibition zone (DIZ) (Penicillium chrysogenum [1]): inactive
O=C(NS(=O)(=O)C1C(c2ccccc2)=NN(c2ccccc2)C1c1ccccc1)c1cccs1 (stereo not drawn)	–	–	–	–	–	–	–	–	–	–	–	–	–	inactive	inactive	inactive	inactive	inactive	inactive	inactive	diameter of the inhibition zone (DIZ) (Penicillium chrysogenum [1]): inactive; diameter of the inhibition zone (DIZ) (Bacillus subtilis [5]): inactive; diameter of the inhibition zone (DIZ) (Penicillium chrysogenum [6]): inactive; diameter of the inhibition zone (DIZ) (Klebsiella pneumoniae [7]): inactive; diameter of the inhibition zone (DIZ) (Staphylococcus aureus [9]): inactive; diameter of the inhibition zone (DIZ) (Aspergillus niger [11]): inactive; diameter of the inhibition zone (DIZ) (Klebsiella pneumoniae [12]): inactive; diameter of the inhibition zone (DIZ) (Bacillus subtilis [13]): inactive; diameter of the inhibition zone (DIZ) (Bacillus subtilis [14]): inactive; diameter of the inhibition zone (DIZ) (Aspergillus niger [15]): inactive; diameter of the inhibition zone (DIZ) (Klebsiella pneumoniae [18]): inactive
Cc1ccc(-c2onc(-c3ccccc3)c2S(=O)(=O)NC(=O)c2ccc(Cl)s2)cc1	16 mm	18 mm	23 mm	18 mm	17 mm	19 mm	17 mm	21 mm	24 mm	25 mm	21 mm	26 mm	22 mm	–	–	–	–	–	–	–	zone of inhibition at 50 µg/disc (Pseudomonas aeruginosa [2]): 8 mm; zone of inhibition at 100 µg/disc (Pseudomonas aeruginosa [3]): 14 mm; zone of inhibition at 50 µg/disc (Penicillium chrysogenum [8]): 14 mm; zone of inhibition at 75 µg/disc (Pseudomonas aeruginosa [16]): 10 mm; zone of inhibition at 50 µg/disc (Staphylococcus aureus [17]): 13 mm
O=C(NS(=O)(=O)C1C(c2ccccc2)=NOC1c1ccc([N+](=O)[O-])cc1)c1cccs1 (stereo not drawn)	8 mm	–	16 mm	10 mm	9 mm	15 mm	12 mm	10 mm	11 mm	20 mm	15 mm	13 mm	10 mm	inactive	inactive	inactive	inactive	–	inactive	–	zone of inhibition at 50 µg/disc (Staphylococcus aureus [17]): 11 mm
Cc1ccc(-c2c(S(=O)(=O)NC(=O)c3cccs3)c(-c3ccccc3)nn2-c2ccccc2)cc1	8 mm	12 mm	18 mm	10 mm	14 mm	14 mm	12 mm	15 mm	18 mm	21 mm	16 mm	17 mm	16 mm	inactive	–	–	inactive	–	–	–	zone of inhibition at 100 µg/disc (Pseudomonas aeruginosa [3]): 11 mm; zone of inhibition at 75 µg/disc (Pseudomonas aeruginosa [16]): 8 mm; zone of inhibition at 50 µg/disc (Staphylococcus aureus [17]): 9 mm
O=C(NS(=O)(=O)C1C(c2ccccc2)=NN(c2ccccc2)C1c1ccccc1)c1ccc(Cl)s1 (stereo not drawn)	–	8 mm	11 mm	9 mm	–	–	–	11 mm	11 mm	15 mm	8 mm	13 mm	–	inactive	inactive	–	inactive	inactive	inactive	inactive	diameter of the inhibition zone (DIZ) (Penicillium chrysogenum [1]): inactive; diameter of the inhibition zone (DIZ) (Klebsiella pneumoniae [7]): inactive; diameter of the inhibition zone (DIZ) (Staphylococcus aureus [9]): inactive; diameter of the inhibition zone (DIZ) (Klebsiella pneumoniae [18]): inactive
O=C(NS(=O)(=O)C1C(c2ccccc2)=NN(c2ccccc2)C1c1ccc([N+](=O)[O-])cc1)c1ccc(Cl)s1 (stereo not drawn)	10 mm	10 mm	15 mm	14 mm	12 mm	10 mm	–	14 mm	14 mm	19 mm	13 mm	17 mm	13 mm	inactive	inactive	–	inactive	inactive	inactive	inactive	–
Cc1ccc(C2ON=C(c3ccccc3)C2S(=O)(=O)NC(=O)c2ccc(Cl)s2)cc1 (stereo not drawn)	–	–	–	–	–	–	–	–	–	–	–	–	–	inactive	inactive	inactive	inactive	inactive	inactive	inactive	diameter of the inhibition zone (DIZ) (Penicillium chrysogenum [1]): inactive; diameter of the inhibition zone (DIZ) (Bacillus subtilis [5]): inactive; diameter of the inhibition zone (DIZ) (Penicillium chrysogenum [6]): inactive; diameter of the inhibition zone (DIZ) (Klebsiella pneumoniae [7]): inactive; diameter of the inhibition zone (DIZ) (Staphylococcus aureus [9]): inactive; diameter of the inhibition zone (DIZ) (Aspergillus niger [11]): inactive; diameter of the inhibition zone (DIZ) (Klebsiella pneumoniae [12]): inactive; diameter of the inhibition zone (DIZ) (Bacillus subtilis [13]): inactive; diameter of the inhibition zone (DIZ) (Bacillus subtilis [14]): inactive; diameter of the inhibition zone (DIZ) (Aspergillus niger [15]): inactive; diameter of the inhibition zone (DIZ) (Klebsiella pneumoniae [18]): inactive
O=C(NS(=O)(=O)C1C(c2ccccc2)=NN(c2ccccc2)C1c1ccc([N+](=O)[O-])cc1)c1cccs1 (stereo not drawn)	9 mm	–	14 mm	12 mm	9 mm	9 mm	–	12 mm	13 mm	17 mm	12 mm	15 mm	11 mm	inactive	inactive	inactive	inactive	inactive	inactive	inactive	–
Cc1ccc(/C=C/S(=O)(=O)NC(=O)c2cccs2)cc1	–	–	15 mm	10 mm	12 mm	12 mm	11 mm	8 mm	16 mm	18 mm	13 mm	12 mm	13 mm	inactive	–	inactive	inactive	–	–	inactive	diameter of the inhibition zone (DIZ) (Penicillium chrysogenum [1]): inactive; zone of inhibition at 100 µg/disc (Pseudomonas aeruginosa [3]): 9 mm; zone of inhibition at 75 µg/disc (Pseudomonas aeruginosa [16]): 7 mm
